We go through one compound from ChEMBL document CHEMBL4477268, “2-(4-Fluorophenyl)-quinazolin-4(3H)-one as a novel tyrosinase inhibitor: Synthesis, inhibitory activity, and mechanism” (Bioorg Med Chem, 2016).

Experiment [1] is described as follows: Binding affinity to L-DOPA assessed as decrease in maximum fluorescence emission intensity of L-DOPA at 48 uM by spectrophotometric analysis. On the set-up: scale not given: the % may be the effect or the level left.
Experiment [2] has as its target T1, Tyrosinase (Agaricus bisporus) (UniProt O42713).
T1 sequence (whole entry): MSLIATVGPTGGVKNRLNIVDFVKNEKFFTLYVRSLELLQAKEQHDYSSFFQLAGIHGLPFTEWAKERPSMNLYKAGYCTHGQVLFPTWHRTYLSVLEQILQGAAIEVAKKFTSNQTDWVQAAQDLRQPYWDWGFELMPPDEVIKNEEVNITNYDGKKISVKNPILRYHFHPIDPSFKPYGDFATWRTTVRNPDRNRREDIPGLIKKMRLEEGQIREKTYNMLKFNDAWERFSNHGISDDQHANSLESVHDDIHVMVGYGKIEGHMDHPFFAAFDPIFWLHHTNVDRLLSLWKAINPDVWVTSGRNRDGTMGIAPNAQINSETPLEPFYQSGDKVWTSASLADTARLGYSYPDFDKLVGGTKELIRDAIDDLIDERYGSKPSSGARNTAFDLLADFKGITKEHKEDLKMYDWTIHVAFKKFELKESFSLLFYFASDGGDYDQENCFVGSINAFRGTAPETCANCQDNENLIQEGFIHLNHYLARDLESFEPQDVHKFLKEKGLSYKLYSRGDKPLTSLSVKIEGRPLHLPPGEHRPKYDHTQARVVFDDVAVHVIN
Briefly: Binding affinity to mushroom tyrosinase assessed as reduction in fluorescence intensity by spectrophotometric analysis.

Experiment [3] deals with T1, Tyrosinase (Agaricus bisporus). The experiment can be described thus: Binding affinity to mushroom tyrosinase assessed as induction of red shift in spectra by fluorescence-spectrophotometric analysis.
Experiment [4] addresses T2, Tyrosinase (Agaricus bisporus, UniProt O42713).
T2 sequence (O42713 whole entry): T1 sequence (whole entry)
Briefly: Mixed-type reversible inhibition of diphenolase activity of mushroom tyrosinase using L-DOPA as substrate by Lineweaver-Burk double reciprocal-plot analysis.

Experiment [5] in a line: Binding affinity to tyrosine assessed as decrease in maximum fluorescence emission intensity of tyrosine at 48 uM by spectrophotometric analysis. Details: scale not given: the % may be the effect or the level left.
The target in experiment [6] is T1, Tyrosinase (Agaricus bisporus). Briefly: Binding affinity to mushroom tyrosinase assessed as reduction in fluorescence intensity at 0 to 10 uM by fluorescence-spectrophotometric analysis. On the set-up: scale not given: the % may be the effect or the level left.
Experiment [7] shares this target. The experiment can be described thus: (§1) Inhibition of diphenolase activity of mushroom tyrosinase using L-DOPA as substrate by spectrophotometric analysis.
For experiment [8], the target named is T2, Tyrosinase. The description is as §1.
Experiment [9] addresses T2, Tyrosinase. The experiment can be described thus: Mixed-type reversible inhibition of diphenolase activity of mushroom tyrosinase assessed as enzyme-substrate complex using L-DOPA as substrate by Lineweaver-Burk double reciprocal plot analysis.

The source made the active and inactive calls. The calls are words filed in the database; no cut-off is given here.

For `Oc1nc(-c2ccc(F)cc2)nc2ccccc12`, the Activity is 44.8% in experiment [1], “Dose-dependent effect” in experiment [2], 53.1% in experiment [5] and 77.2% in experiment [6]. In addition, the outcome in [3] was Active. For the same compound, the Ki is 703 µM at Tyrosinase [4] and 222 µM on Tyrosinase [9]. In addition, the inhibition result in [7] was “Dose-dependent effect”. On Tyrosinase [8], this compound had a half-maximal inhibitory concentration (IC50) of 120 µM.

The term Ki denotes a dissociation constant, usually derived from enzyme kinetics or from competition with a known ligand. The IC50 is the concentration that inhibits the measured activity by half.
